According to US9243270B2, “Method for producing metabolites from omeprazole using bacterial cytochrome P450, and composition for same” (priority 2012, dated 2016):
Entries after “also recorded” stand apart in the source; their conditions may differ.

B1: wild-type CYP102A1: bacterial cytochrome P450 BM3 (CYP102A1) from Bacillus megaterium, SEQ ID NO: 16 (protein)
chain: MTIKEMPQPKTFGELKNLPLLNTDKPVQALMKIADELGEIFKFEAPGRVTRYLSSQRLIKEACDESRFDKNLSQALKFVRDFAGDGLFTSWTHEKNWKKAHNILLPSFSQQAMKGYHAMMVDIAVQLVQKWERLNADEHIEVPEDMTRLTLDTIGLCGFNYRFNSFYRDQPHPFITSMVRALDEAMNKLQRANPDDPAYDENKRQFQEDIKVMNDLVDKIIADRKASGEQSDDLLTHMLNGKDPETGEPLDDENIRYQIITFLIAGHETTSGLLSFALYFLVKNPHVLQKAAEEAARVLVDPVPSYKQVKQLKYVGMVLNEALRLWPTAPAFSLYAKEDTVLGGEYPLEKGDELMVLIPQLHRDKTIWGDDVEEFRPERFENPSAIPQHAFKPFGNGQRACIGQQFALHEATLVLGMMLKHFDFEDHTNYELDIKETLTLKPEGFVVKAKSKKIPLGGIPSPSTEQSAKKVRKKAENAHNTPLLVLYGSNMGTAEGTARDLADIAMSKGFAPQVATLDSHAGNLPREGAVLIVTASYNGHPPDNAKQFVDWLDQASADEVKGVRYSVFGCGDKNWATTYQKVPAFIDETLAAKGAENIADRGEADASDDFEGTYEEWREHMWSDVAAYFNLDIENSEDNKSTLSLQFVDSAADMPLAKMHGAFSTNVVASKELQQPGSARSTRHLEIELPKEASYQEGDHLGVIPRNYEGIVNRVTARFGLDASQQIRLEAEEEKLAHLPLAKTVSVEELLQYVELQDPVTRTQLRAMAAKTVCPPHKVELEALLEKQAYKEQVLAKRLTMLELLEKYPACEMKFSEFIALLPSIRPRYYSISSSPRVDEKQASITVSVVSGEAWSGYGEYKGIASNYLAELQEGDTITCFISTPQSEFTLPKDPETPLIMVGPGTGVAPFRGFVQARKQLKEQGQSLGEAHLYFGCRSPHEDYLYQEELENAQSEGIITLHTAFSRMPNQPKTYVQHVMEQDGKKLIELLDQGAHFYICGDGSQMAPAVEATLMKSYADVHQVSEADARLWLQQLEEKGRYAKDVWAG

What was measured:
[1] = tested on: CYP102A1 (P450 BM3); settings: bacterial wild-type CYP102A1 and mutants, 100 μM omeprazole, NADPH-generating system
Experimental: (§1) CYP102A1 50 pmol and 100 μM substrates were put into 100 mM of a potassium phosphate buffer (pH 7.4) 0.25 me and were subjected to a typical steady state reaction. In order to initiate the reaction, an NADPH-generating system (final concentration: 10 mM glucose 6-phosphate, 0.5 mM NADP^+, and 1 IU yeast glucose 6-phosphate dehydrogenase per 1 me) was added. 20 mM omeprazole solution was prepared by DMSO, and diluted with an enzyme reaction solution so that an organic solvent has the final concentration of 1%(v/v) or less. For measuring an activity of human CYP2C19, 50 pmol P450, 100 pmol NADPH-P450 reductase (CPR), 100 pmol cytochrome b5 and 45 μM L-α-dilauroyl-sn-glycero-3-phosphocholine (DLPC) were used instead of 50 pmol CYP102A1. The reaction solution was reacted at 37 for 30 minutes, and the reaction was terminated by dichloromethane prepared in a cold state with twice amounts of ice.
(§2) The reaction mixture was centrifuged to remove the supernatant, the solvent thereof was evaporated under nitrogen gas (see Vickers et al., 1990), and the obtained mixture was analyzed by HPLC (see Piver et al., 2004). A sample (30 μl) was injected into Gemini C18 column (4.6 mm×150 mm, 5 μm, Phenomenex, Torrance, Calif.). 30% acetonitrile was used as a mobile phase.

[2] = molecular target: human CYP2C19 (Homo sapiens, UniProt P33261); assay: Oxidation of omeprazole by human CYP2C19, metabolites by HPLC and LC-MS; assay type: in vitro ADME; settings: human CYP2C19, 100 μM omeprazole, NADPH-generating system, 37° C., 30 minutes
Experimental: as §1, §2

[3] = Total turnover number (TTN) of omeprazole oxidation by CYP102A1 enzymes, HPLC; assay type: biochemical, Bacillus megaterium; settings: 0.1 mM to 2 mM omeprazole, 30 minutes up to 5 hours, NADPH-generating system
Experimental: 30% acetonitrile was used as a mobile phase.
It could be confirmed from the results of FIG. 5 that the turnover number of the wild-type CYP102A1, 17 kinds of mutants thereof, and 6 kinds of mutant kimeras varied at a large range. In addition, the total turnover number (TTNs) (mol product/mol catalyst) of the CYP102A1 mutant was investigated. In order to measure TTNs of the CYP102A1 mutant, 0.1 mM to 2 mM omeprazole was used, and the reaction was performed with an interval from 30 minutes up to 5 hours. The production rate of the omeprazole metabolite was determined by HPLC.

human CYP2C19, sequence (P33261 whole entry): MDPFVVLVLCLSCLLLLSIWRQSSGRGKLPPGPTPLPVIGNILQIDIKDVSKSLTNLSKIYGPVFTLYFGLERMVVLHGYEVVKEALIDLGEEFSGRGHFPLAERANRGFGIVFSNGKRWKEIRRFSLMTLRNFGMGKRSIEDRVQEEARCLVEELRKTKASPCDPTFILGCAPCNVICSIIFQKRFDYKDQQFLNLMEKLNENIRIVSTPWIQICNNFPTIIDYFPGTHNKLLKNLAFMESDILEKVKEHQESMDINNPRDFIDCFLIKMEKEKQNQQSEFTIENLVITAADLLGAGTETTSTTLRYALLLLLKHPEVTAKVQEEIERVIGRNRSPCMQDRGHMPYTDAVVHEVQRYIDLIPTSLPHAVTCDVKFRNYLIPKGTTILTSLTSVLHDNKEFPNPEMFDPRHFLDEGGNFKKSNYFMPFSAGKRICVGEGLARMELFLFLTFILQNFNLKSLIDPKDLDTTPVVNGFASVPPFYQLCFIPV

| Molecule | main product produced from omeprazole [1] | main metabolites produced from omeprazole [2] | total turnover number (TTNs), activity towards omeprazole [3] |
| --- | --- | --- | --- |
| COc1ccc2[nH]c([S+]([O-])Cc3ncc(C)c(OC)c3C)nc2c1 (racemic) [omeprazole] | 5′-hydroxyomeprazole | 3′-hydroxyomeprazole and 5′-hydroxyomeprazole |  |
| B1 |  |  | the activity with respect to the omeprazole was hardly shown; also recorded: hardly had an activity with respect to omeprazole |
